According to patent US5397781A, “Pyrimidine derivatives” (Mochida Pharmaceutical Company, Limited, priority 1992, dated 1995):
Like-named read-outs stand apart in the source and are kept apart here.

Key:
macrophages = assay: Inhibitory effect on cholesteryl ester accumulation in macrophages; assay type: cell-based, mouse (ddy-family male mice); conditions: Macrophage, read-out: Inhibition activity on cholesteryl ester accumulation (IC50 grade)
Protocol: Inhibitory effect on cholesteryl ester accumulation in macrophages.
Namely resident peritoneal cells suspended in phosphate-buffered saline (PBS) were plated in plastic Petri dishes (35 mm×10 mm) at a density of 2×10^6 cells. The adherent macrophages were cultured overnight at 37° C. in Dalbecco's modified Eagle medium (DME) containing 10% fetal bovine serum (FCS) under humidified 5% CO2. […] After discarding the medium, each macrophage monolayer was washed with PBS and lipids were extracted with hexane/isopropyl alcohol (3:2). Cholesteryl esters in the extract were separated by thin-layer chromatography and the radioactivity was measured by liquid scintillation counter.

serum total cholesterol = assay: Hypocholesterolemic effect on cholesterol feeding rats; assay type: in vivo, male Wistar rats; conditions: Rattus norvegicus, oral, high cholesterol diet rats, read-out: % reduction of serum total cholesterol; for inhibition in vivo at 30 mg/kg: 30 mg/kg/day; for inhibition in vivo at 10 mg/kg: 10 mg/kg/day
Protocol: Hypocholesterolemic effect on cholesterol feeding rats. Male Wistar rats aged 7 weeks old were fed a diet (CE®) supplemented with 2%(w/w) cholesterol, 0.5%(w/w) sodium cholate, 10%(w/w) lard, 0.2%(w/w) propylthiouracyl and 5%(w/w) sucrose, for 3 days. Following 3 days, the compounds of the present invention were administered orally, and the animals were maintained with the high cholesterol diet. On the next day of final drug administration, blood was drown and serum total cholesterol-levels were measured enzymatically by autoanalyzer. CL277082 was used as a reference compound.

ACAT = target: T1, ACAT (Rattus norvegicus, UniProt Q7TQM4); assay: Inhibitory effect on microsomal ACAT activity in rat liver; assay type: biochemical; conditions: rat liver microsomes; read-out: IC50 (50% inhibition of cholesterol esterification)
T1 construct: Liver microsomes as an enzyme sample of ACAT were prepared from overnight-fasted male rats; from tissue; host or cells: liver of overnight-fasted male rats, 6 weeks old; microsomes
T1 sequence (Q7TQM4 1-524): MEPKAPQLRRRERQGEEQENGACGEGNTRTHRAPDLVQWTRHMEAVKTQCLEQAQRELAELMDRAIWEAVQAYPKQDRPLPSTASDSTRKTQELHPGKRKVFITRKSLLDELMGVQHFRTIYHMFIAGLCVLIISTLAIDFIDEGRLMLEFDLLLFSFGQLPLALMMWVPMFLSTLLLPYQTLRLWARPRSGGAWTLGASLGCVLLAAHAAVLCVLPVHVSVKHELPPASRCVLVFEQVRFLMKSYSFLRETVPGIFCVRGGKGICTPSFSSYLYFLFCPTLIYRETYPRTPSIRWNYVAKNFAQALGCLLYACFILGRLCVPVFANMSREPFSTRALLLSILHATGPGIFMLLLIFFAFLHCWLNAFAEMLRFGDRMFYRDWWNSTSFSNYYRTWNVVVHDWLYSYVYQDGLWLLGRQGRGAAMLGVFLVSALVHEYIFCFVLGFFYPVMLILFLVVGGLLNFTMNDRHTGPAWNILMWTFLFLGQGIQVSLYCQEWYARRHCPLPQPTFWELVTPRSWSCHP

male Wistar rats = assay: Acute toxicity; assay type: in vivo; conditions: single oral dose 1 g/kg, 7 days observation
Description: The pyrimidine derivatives of the present invention were examined for acute toxicity by using male Wistar rats fasted over night aged 7 weeks old.

[1] = mouse peritoneal macrophages, β-VLDL, [3H]oleic acid, 3 hrs

SMILES	IC50 (ACAT)	IC50 (macrophages; [1])	also measured
CCCCCCCN(Cc1ccc(CC(C)(C)C)cc1)C(=O)Nc1ccc(F)cc1F [CL277082, (N'-2,4-difluorophenyl)-N-[[4-(2,2-dimethylpropyl)phenyl]methyl]-N-heptylurea, reference compound]			IC50 (macrophages; Mus musculus, 3 h): 1000 to 10000 nM; inhibition in vivo at 30 mg/kg (serum total cholesterol): 52%
CCCCCCCN(Cc1ccccc1)c1nc(C)nc(S)c1NC(=O)CCCN(CCC)c1ccccc1 [Example 148, N-[4-(N-benzyl-N-heptylamino)-6-mercapto-2-methylpyrimidin-5-yl]-4-(N-phenyl-N propylamino)butanamide]	55 nM	10 to 100 nM	
CCCN(CCCC(=O)Nc1c(S)ncnc1N(CCC)c1ccccc1)c1ccccc1 [Example 149, N-[4-mercapto-6-(N-phenyl-N-propylamino)pyrimidin-5-yl]-(N-phenyl-N-propylamino)butanamide]	140 nM		inhibition in vivo at 30 mg/kg (serum total cholesterol): 21%
CCCCN(CCCC)c1nc(C)nc(OCC)c1NC(=O)CCCCN(CCC)c1ccccc1 [Example 196, N-[4-(N,N-dibutylamino)-6-ethoxy-2-methylpyrimidin-5-yl]-5-(N-phenyl-N-propylamino)pentanamide]			lethal incident (acute toxicity) (male Wistar rats): no lethal incident was observed; inhibition in vivo at 10 mg/kg (serum total cholesterol): 48%
CCCN(CCC(=O)Nc1c(SC)nc(C)nc1N(CC)CC)c1ccccc1 [Example 216, N-[4-(N,N-diethylamino)-2-methyl-6-methylthiopyrimidin-5-yl]-3-(N-phenyl-N-propylamino)propionamide]	120 nM		inhibition in vivo at 100 mg/kg (serum total cholesterol; 100 mg/kg/day): 33%
CCCN(CCCC(=O)Nc1c(SC)nc(C)nc1N(C)C)c1ccccc1 [Example 219, N-[4-(N,N-dimethylamino)-2-methyl-6-methylthiopyrimidin-5-yl]-4-(N-phenyl-N-propylamino)butanamide]	130 nM	100 to 1000 nM	
CCCN(CCCC(=O)Nc1c(SC)nc(C)nc1N(CC)CC)c1ccccc1 [Example 220, N-[4-(N,N-diethylamino)-2-methyl-6-methylthiopyrimidin-5-yl]-4-(N-phenyl-N-propylamino)butanamide]	52 nM	100 to 1000 nM	inhibition in vivo at 30 mg/kg (serum total cholesterol): 23%
CCCCN(CCCC)c1nc(C)nc(SC)c1NC(=O)CCCN(CCC)c1ccccc1 [Example 221, N-[4-(N,N-dibutylamino)-2-methyl-6-methylthiopyrimidin-5-yl]-4-(N-phenyl-N-propylamino)butanamide]	29 nM	10 to 100 nM	
CCCCCCCN(Cc1ccccc1)c1nc(C)nc(SC)c1NC(=O)CCCN(CCC)c1ccccc1 [Example 223, N-[4-(N-benzyl-N-heptylamino)-2-methyl-6-methylthiopyrimidin-5-yl]-4-(N-phenyl-N-propylamino)butanamide]	64 nM	10 to 100 nM	inhibition in vivo at 10 mg/kg (serum total cholesterol): 70%
CCCCCCN(CCCC(=O)Nc1c(SC)nc(C)nc1N(CC)CC)c1ccccc1 [Example 225, N-[4-(N,N-diethylamino)-2-methyl-6-methylthiopyrimidin-5-yl]-4-(N-hexyl-N-phenylamino)butanamide]	19 nM	10 to 100 nM	inhibition in vivo at 10 mg/kg (serum total cholesterol): 64%
CCCCCCN(CCCC(=O)Nc1c(SC)nc(C)nc1N1CCOCC1)c1ccccc1 [Example 231, N-[2-methyl-4-methylthio-6-morpholinopyrimidin-5-yl]-4-(N-hexyl-N-phenylamino)butanamide]			lethal incident (acute toxicity) (male Wistar rats): no lethal incident was observed
CCCCCCN(CCCC(=O)Nc1c(SC)ncnc1N(CC)CC)c1ccccc1 [Example 232, N-[4-(N,N-diethylamino)-6-methylthiopyrimidin-5-yl]-4-(N-hexyl-N-phenylamino)butanamide]			lethal incident (acute toxicity) (male Wistar rats): no lethal incident was observed; inhibition in vivo at 10 mg/kg (serum total cholesterol): 65%
CCCN(CCCC(=O)Nc1c(SC)nc(C)nc1N(CC)CC)c1ccc(OC)cc1 [Example 238, N-[4-(N,N-diethylamino)-2-methyl-6-methylthiopyrimidin-5-yl]-4-[N-(4-methoxyphenyl)-N-propylamino)butanamide]	110 nM	100 to 1000 nM	inhibition in vivo at 10 mg/kg (serum total cholesterol): 65%
CCCCCCN(CCCC(=O)Nc1c(SC)nc(C)nc1N(CC)CC)c1ccccc1OC [Example 240, N-[4-(N,N-diethylamino)-2-methyl-6-methylthiopyrimidin-5-yl]-4-[N-hexyl-N-(2-methoxyphenyl)amino]butanamide]	73 nM		lethal incident (acute toxicity) (male Wistar rats): no lethal incident was observed
CCCCCCCN(Cc1ccccc1)c1nc(C)nc(SC)c1NC(=O)CCCCN(CCC)c1ccccc1 [Example 249, N-[4-(N-benzyl-N-heptylamino)-2-methyl-6-methylthiopyrimidin-5-yl]-5-(N-phenyl-N-propylamino)pentanamide]	160 nM	100 to 1000 nM	
CCCCN(CCCC)c1ncnc(SC)c1NC(=O)CCCCN(CCC)c1ccccc1 [Example 250, N-[4-(N,N-dibutylamino)-6-methylthiopyrimidin-5-yl]-5-(N-phenyl-N-propylamino)pentanamide]	9.6 nM		
CCCCCCN(CCCCC(=O)Nc1c(SC)nc(C)nc1N(CC)CC)c1ccccc1 [Example 252, N-[4-(N,N-diethylamino)-2-methyl-6-methylthiopyrimidin-5-yl]-5-(N-hexyl-N-phenylamino)pentanamide]	33 nM		
CCCSc1nc(C)nc(N(CCC)c2ccccc2)c1NC(=O)CCCN(CCC)c1ccccc1 [Example 256, N-[2-methyl-4-(N-phenyl-N-propylamino)-6-propylthiopyrimidin-5-yl]-4-(N-phenyl-N-propylamino)butanamide]	100 nM		
CCCCCCSc1nc(C)nc(N(CCC)c2ccccc2)c1NC(=O)CCCN(CCC)c1ccccc1 [Example 257, N-[4-hexylthio-2-methyl-6-(N-phenyl-N-propylamino)pyrimidin-5-yl]-4-(N-phenyl-N-propylamino)butanamide]	220 nM		
CCCN(CCCC(=O)Nc1c(SCc2ccccc2)nc(C)nc1N(CCC)c1ccccc1)c1ccccc1 [Example 258, N-[4-benzylthio-2-methyl-6-(N-phenyl-N-propylamino)pyrimidin-5-yl]-4-(N-phenyl-N-propylamino)butanamide]	230 nM		
CCCN(CCCC(=O)Nc1c(SCc2ccccc2)nc(C)nc1N(CC)CC)c1ccccc1 [Example 259, N-[4-benzylthio-6-(N,N-dietylamino)-2-methylpyrimidin-5-yl]-4-(N-phenyl-N-propylamino)butanamide]	76 nM		
CCCCCCN(CCCC(=O)Nc1c(SCCC)nc(C)nc1N(CC)CC)c1ccccc1 [Example 261, N-[4-(N,N-dietylamino)-2-methyl-6-propylthiopyrimidin-5-yl]-4-(N-hexyl-N-phenylamino)butanamide]	23 nM		
CCCN(CCCC(=O)Nc1c(OCc2ccccc2)nc(C)nc1C(C)C)c1ccccc1 [Example 263, N-(4-benzyloxy-6-isopropyl-2-methylpyrimidin-5-yl)-4-(N-phenyl-N-propylamino)butanamide]	100 nM		
CCCN(CCCC(=O)Nc1c(C(C)C)nc(C)nc1N(CC)CC)c1ccccc1 [Example 266, N-[4-(N,N-diethylamino)-6-isopropyl-2-methylpyrimidin-5-yl]-4-(N-phenyl-N-propylamino)butanamide]	170 nM		
CCCN(CCCC(=O)Nc1c(SC)nc(C)nc1C(C)C)c1ccccc1 [Example 268, N-(4-isopropyl-2-methyl-6-methylthiopyrimidin-5-yl)-4-(N-phenyl-N-propylamino)butanamide]	56 nM		
CCCCCCN(CCCC(=O)Nc1c(SC)nc(C)nc1N(CC)CC)c1ccc(Br)cc1 [Example 272, 4-[N-(4-bromophenyl)-N-hexylamino]-N-[4-(N,N-diethylamino)-2-methyl-6-methylthiopyrimidin-5yl]butanamide]	37 nM		
